Series [1] has as its system SARS-CoV-2. The series can be described thus: SARS-CoV-2 infection assay, viral RNA in culture supernatant by real-time RT-PCR. It is filed as cell-based, SARS-CoV-2 Wk-521 strain. As to conditions: 24 h post-inoculation; for IC90: Severe acute respiratory syndrome coronavirus 2, read-out: IC90 (90% maximal inhibitory concentration); for IC90 / IC50: viral RNA in culture supernatant, VeroE6/TMPRSS2 cells; for IC50: Severe acute respiratory syndrome coronavirus 2, read-out: IC50 (50% maximal inhibitory concentration); for effect on viral RNA (in words) / reduction of the production of viral RNA as compared to control: concentrations up to 30 μM; for reduction of the production of viral RNA as compared to control: natural oxysterols. A general note: Quantitative PCR measures a nucleic acid by following its amplification.

The next series is described as follows: in vitro. As to conditions: African green monkey.
In series [2] the test system is SARS-CoV-2. The series can be described thus: Virus-induced cytopathic effect (CPE) viewed under a microscope. It is filed as cell-based, SARS-CoV-2 Wk-521 strain. As to conditions: 48 h post-inoculation; 10 μM RDV, 30 μM cholesterol, 30 μM 7-KC, 10 μM Oxy133, 10 μM Oxy210.
The subject of series [3] is SARS-CoV-2. The series can be described thus: Viral N protein by indirect immunofluorescence. It is filed as cell-based, SARS-CoV-2 Wk-521 strain. As to conditions: 10 μM RDV, 30 μM cholesterol, 30 μM 7-KC, 10 μM Oxy133, 10 μM Oxy210.

The record followed here is article PMC8003796, “Identification of Anti-Severe Acute Respiratory Syndrome-Related Coronavirus 2 (SARS-CoV-2) Oxysterol Derivatives In Vitro” (International Journal of Molecular Sciences, 2021).

Take `CC(C)CCC[C@@H](C)[C@H]1CC[C@H]2[C@@H]3CC=C4[C@@H](O)[C@@H](O)CC[C@]4(C)[C@H]3CC[C@]12C` [4-beta-OHC, 4beta-hydroxycholesterol]: in the series with SARS-CoV-2 [1], the IC90 was more than 30 µM, the IC50 is more than 30 µM and the “effect on viral RNA (in words)” value was “did not show apparent reductions in viral RNA”. This compound had a CC50 in the series “in vitro” of more than 30 µM.

As to `CC(C)CCC[C@@H](C)[C@H]1CC[C@H]2[C@@H]3C(=O)C=C4C[C@@H](O)CC[C@]4(C)[C@H]3CC[C@]12C` [7-KC, 7-ketocholesterol], in the series on SARS-CoV-2 [1], the IC90 was more than 30 µM, the IC50 worked out at 14.5 µM and the “reduction of the production of viral RNA as compared to control” value (“reduction of the production of viral RNA” for short) is given as 80%–86%. The CC50 in “in vitro” was more than 30 µM. Besides, the “effect on SARS-CoV-2-induced CPE (in words)” value with SARS-CoV-2 [2] is listed as “reduced the SARS-CoV-2-induced CPE”. Besides, in the series with SARS-CoV-2 [3], the “effect on virus propagation / spread of infection, N protein (in words)” value is listed as “reduced”.

Regarding `CC(C)CC[C@@H](O)[C@@H](C)[C@H]1CC[C@H]2[C@@H]3CC=C4C[C@@H](O)CC[C@]4(C)[C@H]3CC[C@]12C` [22(R)-OHC, 22(R)-hydroxycholesterol], in the series on SARS-CoV-2 [1], the IC90 was more than 30 µM, the IC50 stood at 13.2 µM and the “reduction of the production of viral RNA” value is listed as 80%–86%. This compound showed a CC50 in “in vitro” of more than 30 µM.

As for `CC(C)CC[C@H](O)[C@@H](C)[C@H]1CC[C@H]2[C@@H]3CC=C4C[C@@H](O)CC[C@]4(C)[C@H]3CC[C@]12C` [22(S)-OHC, 22(S)-hydroxycholesterol], in the series on SARS-CoV-2 [1], the IC90 is more than 30 µM, the IC50 was more than 30 µM and the “effect on viral RNA (in words)” value was “did not show apparent reductions in viral RNA”. Also, the CC50 in the series “in vitro” is more than 30 µM.

`CC(C)[C@@H](O)CC[C@@H](C)[C@H]1CC[C@H]2[C@@H]3CC=C4C[C@@H](O)CC[C@]4(C)[C@H]3CC[C@]12C` [24(S)-OHC, 24(S)-hydroxycholesterol]: in the series on SARS-CoV-2 [1], the IC90 is more than 30 µM, the IC50 is 1.3 µM and the “reduction of the production of viral RNA” value was 80%–86%. In the series “in vitro”, this compound displayed a CC50 of more than 30 µM.

Consider `C[C@@H](CO)CCC[C@@H](C)[C@H]1CC[C@H]2[C@@H]3CC=C4C[C@@H](O)CC[C@]4(C)[C@H]3CC[C@]12C` [27-OHC, 27-hydroxycholesterol], for which, in the series on SARS-CoV-2 [1], the IC90 was more than 30 µM, the IC50 was 3.5 µM and the “reduction of the production of viral RNA” value is given as 80%–86%. In “in vitro”, this compound came in with a CC50 of more than 30 µM.

In the case of `CC(C)CCC[C@@H](C)[C@H]1CC[C@H]2[C@@H]3CC=C4C[C@@H](O)CC[C@]4(C)[C@H]3CC[C@]12C` [Cholesterol, reference compound], in the series on SARS-CoV-2 [1], the IC90 is more than 30 µM, the IC50 was more than 30 µM and the “effect on viral RNA (in words)” value was “did not show apparent reductions in viral RNA”. The same compound came in with a CC50 in the series “in vitro” of more than 30 µM. Also, the “effect on SARS-CoV-2-induced CPE (in words)” value in the series with SARS-CoV-2 [2] is on record as “but not cholesterol, reduced the SARS-CoV-2-induced CPE”. The “effect on virus propagation / spread of infection, N protein (in words)” value with SARS-CoV-2 [3] is listed as “but not cholesterol, reduced”.
